US20260216328A1, “DISRUPTABLE LINKER COMPOSITIONS, SWITCHABLE BISPECIFIC T CELL NANOENGAGER (SWITCH-BITE) COMPOSITIONS COMPRISING THE SAME, AND METHODS OF USE THEREOF” (The Trustees of the University of Pennsylvania, priority 2023, published 2026)

Experiments:
[1] = tested on: Raji-Luc-GFP tumour cells; test: Humanized immune system mice with liver CD19 and Raji-Luc-GFP tumour; conditions: AMD i.v. at day 7 after SiTE
[2] = tested on: Raji-Luc-GFP tumour cells; test: Cytokine release syndrome in humanized NSG-SGM3 mice with Raji-Luc-GFP tumour; type: in vivo, mouse; conditions: 10 mg/kg AMD i.v., 24 h post-AMD
Experimental: An in vivo imaging system (IVIS) was used to monitor tumour burden in vivo. […] FIGS. 41C-41E: Mouse body weight, temperature and survival curves, respectively. n=10 mice. […] The data in FIGS. 41C-41D and FIGS. 41F-41J were plotted as mean±s.d. (n=10) from three independent experiments. […] P value in FIG. 41E was determined using Log-rank (Mantel-Cox) test.
SiTE and Blinatumomab were also compared with regard to treating symptoms of CRS and neurotoxicity. The humanized mouse model was constructed as before, but this time the piggybac transposon system was not used to express CD19 in the mouse livers. This allowed better analysis of the effects of the SiTE on CRS and neurotoxicity (FIG. 41A). Raji-Luc-GFP cells were i.v. injected at day −14. Blinatumomab, SiTE or PBS were i.v. injected to the mice at day one. Mouse tumour burden, body weight, temperature, and plasma cytokine levels were monitored (FIGS. 41B-41J).

[3] = Half-life, distribution and clearance of AMD in mice; type: in vivo; conditions: mouse; for half-life: blood, intravenous
[4] = tested on: Raji-Luc-GFP tumour cells; conditions: AMD treatment group after SiTE
Experimental: FIG. 42A: NSG-SGM3 mice were treated with Busulfan at day −50 to remove mouse bone marrow. At day −49, 10^5 human CD34^+ fetal liver cells were i.v. injected to let the mouse develop a human immune system. 10^6 Raji-Luc-GFP tumour cells were i.v. injected at day −14. At days 1, 3, and 5, PBS or SiTE was i.v. injected (in the PBS group, only PBS was injected to tumour-bearing mice). […] FIGS. 42B-42E: mouse body weight, temperature, IL-6 levels, and mouse survival curves, respectively. n=10 mice. The red stars in FIG. 42B indicate that mice were euthanized. FIG. 42F: measurements of IL-1 in mouse blood at different time points. n=10 mice. […] Brain H&E staining (FIG. 42I) and human CD68 immunohistochemistry (FIG. 42J) images of mice at day 35. The data in FIGS. 42B-42F were plotted as mean z s.d. (n=10) from three independent experiments.
It was also evaluated if the SiTE can help control neurotoxicity. In the clinic, neurotoxicity is usually delayed and occurs several […] after CRS onset. Tumour-bearing mice were treated with SiTE at days 1, 3 and 5 (FIG. 42A). […] Rather than use a preventative strategy for treating CRS (FIGS. 40A-40M), here Tocilizumab was used to treat CRS when symptoms presented, so that it can be compared directly with the SiTE strategy. […] Studies have shown that IL-1 is the major cause of neurotoxicity.

E0771-HER2 tumour [5] = test: E0771-HER2 tumour growth inhibition in C57/BL6 mice; type: in vivo, mouse; conditions: following AMD infusion after SiTE
Source text: FIG. 20A: 106 E0771-HER2 cells were s.c. injected into the right flank of C57/BL6 mice. […] All mice were euthanized at day 23. FIG. 20B: images of mice from all treatment groups on day 23. FIG. 20C: tumour growth curves for different groups. Tumour tissue was isolated on Day 23 and observed for immune cell infiltration. FIG. 20D: repeat of the tumour growth inhibition experiment. FIG. 20E: mouse body weight change during the tumour inhibition experiment. FIG. 20F: percentages of CD45+, CD45+CD3+, CD45+CD3+CD4+/CD8+ cells in the tumour tissues. FIG. 20G: immunofluorescence images of the tumour tissues in different groups with cell nuclei labeled with DAPI (blue) and T cells labeled with anti-CD3 antibody (green). Scale bar: 100 μm.
Tumour size and mouse weight were monitored.
Minimal changes in mouse weight were observed across the different groups (FIG. 20E), likely because HER2 antigen is not expressed on normal mouse cells, preventing toxicity from on-target, off-tumour activity. At day 23, all mice were euthanized and tumour tissue was collected to determine total lymphocyte and CD3^+ T cell infiltration using flow cytometry and immunofluorescence imaging.
Additionally, to confirm that this impact on the tumour tissue was HER2 specific, SiTE activity was evaluated in a HER2 negative E0771 tumour model (FIGS. 24A-24J).

E0771-HER2 tumour [6] = test: AMD-mediated in vivo disassembly of SiTE-Cy7 (Cy7 signal in tumour); parameters: species or system mouse; conditions: 18 h post-SiTE-Cy7, read 6 h later
Experimental: FIGS. 19A-19C: SiTE was labeled with Cy7 dye (Cy7 was labeled on CD3 Fab) and was i.v. injected to tumour-bearing mice at 0 h. Then. PBS. […] 6 h later, mice were euthanized and the Cy7 signal in different organs and tumour was measured using IVIS. […] FIG. 19E: quantification of the fluorescence in tumour tissues in a-c. Data was shown as mean±SD (n=3), statistical differences were analyzed using two-tailed unpaired Student's t-test. […] SiTE-Cy7 was i.v. infused into tumour bearing mice at 0 h. […] After 24 h, mice were euthanized and the Cy7 signal distribution in major organs and mice body was observed. Cy7 signal was detected in the spleen, kidney and bladder.
Next, determination as to whether AMD can be used to break down the SiTE in vivo was sought. Cy7 was modified to the CD3 Fab and the Fab assembled with HER2 Fab to formulate SiTE-Cy7. SiTE-Cy7 was i.v. injected to E0771-HER2 tumour-bearing mice at 0 h. […] Mice were euthanized 6 h later and the Cy7 signal in different organs and tumour was measured using an in vivo imaging system (IVIS). […] Most supramolecular chemistry-based strategies for controllable chemotherapeutic release have only been tested in in vitro studies, and only a few in vivo controllable drug release strategies have been reported in this space. […]

[7] = AMD dispersed in 5% polyoxyethylene castor oil

SMILES: NC12CC3CC(CC(C3)C1)C2 [AMD, adamantan-1-amine]
- liver enzyme and cytokine levels in blood [1]: greatly decrease the liver enzyme levels and cytokine levels in blood
- increased cytokine levels after AMD [2]: gradually recovered to within normal ranges
- half-life [3, 7]: ~24 h
- half-life ([3]; AMD dispersed in PBS): ~9 h
- clearance ([3]; in vivo): cleared from the urine
- animal survival [4]: prolonged animal survival
- number of T cells in the tumour tissue (E0771-HER2 tumour [5]): greatly decreased
- Cy7 signal decrease compared to PBS treatment (E0771-HER2 tumour [6]; [7]): over 78%
- decrease in Cy7 signal in the tumour (E0771-HER2 tumour [6]; AMD dispersed in PBS): ~46%
